One assay concerns the target T1, eIF5A:DOHH complex (Homo sapiens, UniProt Q9BU89).
T1 construct: Endogenous DOHH co-immunoprecipitated with FLAG-eIF5A; expressed in transfected cells; host or cells: 293T cells (DOHH endogenous, FLAG-eIF5A transfected)
T1 sequence (Q9BU89 1-302): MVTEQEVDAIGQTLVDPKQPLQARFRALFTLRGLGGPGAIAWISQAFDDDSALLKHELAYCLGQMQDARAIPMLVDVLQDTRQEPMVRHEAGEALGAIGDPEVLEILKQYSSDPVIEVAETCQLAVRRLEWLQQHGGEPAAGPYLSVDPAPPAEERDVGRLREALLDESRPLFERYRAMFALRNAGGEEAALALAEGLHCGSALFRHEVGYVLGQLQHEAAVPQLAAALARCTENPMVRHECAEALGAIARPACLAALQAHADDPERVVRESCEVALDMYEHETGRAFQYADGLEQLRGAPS
The experiment in a line: Co-immunoprecipitation of eIF5A with DOHH from 293T cell extracts. The assay is classed as cell-based. Particulars: for interaction between endogenous eIF5A and tagged DOHH: 293T transfected with FLAG-DOHH; for association of endogenous DOHH with FLAG-eIF5A: CPX 30 μM, P2 30 μM, DEF 250 μM, DFOX 10 μM, GC7 10 μM, 24 hr. On the procedure: (§1) Immunoprecipitation and immunoblotting experiments were carried out as described previously in Hoque et al. Mol Cell Biol 2003, 23:1688-1702.
eIF5A forms tight complexes with its modifying enzymes. Unmodified eIF5A (lysine-50) immunoprecipitates with DHS and deoxyhypusyl-eIF5A interacts with DOHH in vitro. It was discovered that the deoxyhypusyl-eIF5A:DOHH complex formed in vivo can be detected by immunoprecipitation from cell extracts. Taking advantage of this finding, the effects of the drugs on the enzyme-substrate interaction were tested. FLAG-eIF5A was expressed in 293T cells and complexes that immunoprecipitated with anti-FLAG antibody were immunoblotted and probed with antibodies against DOHH. […] As a further control, the DHS inhibitor GC7 was included in this assay. […] As expected, none of the compounds affected the immunoprecipitation of FLAG-eIF5A (FIG. 2D, middle panel) or the expression of endogenous eIF5A (FIG. 2D, bottom panel). Reciprocally, the interaction between endogenous eIF5A and tagged DOHH was inhibited by CPX and DEF (FIG. 2E, right). Similarly, the interaction of endogenous eIF5A with tagged DHS was inhibited by GC7 (FIG. 2E, left) but resistant to CPX and DEF. It is concluded that CPX and DEF, but not P2 or DFOX, target DOHH and inhibit its interaction with its substrate, deoxyhypusylelF5A.

The subject of the next assay is HIV-1 promoter. The experiment in a line: Dual luciferase assay, HIV-1 molecular clone pNL4-3-LucE- and derived constructs in 293T cells. Particulars: for inhibition of expression from construct VI: 3′-LTR replaced by SV40 poly(A) signal; for dose dependence of repression of expression from pNL4-3-LucE- / repression of luciferase expression (FF:Ren) from pNL4-3-LucE-: 12 hr post-transfection; for repression of luciferase expression (FF:Ren) from pNL4-3-LucE-: CPX 30 μM, DEF 250 μM, P2 30 μM; for inhibition of FF expression from construct V: all open reading frames deleted except luciferase; for inhibition of FF expression from constructs III and IV: within 12 hr, Tat-deficient constructs complemented with Tat vector. The assay is classed as cell-based. On the procedure: Plasmids were introduced into 2×10^5 293T cells by transfection using Lipofectamine 2000 (Invitrogen) according to the manufacturer's instructions. Compounds (such as CPX or DEF) were added simultaneously. Cells were harvested at 12 hr post-transfection, washed with PBS, lysed in 0.15 ml of 1× passive lysis buffer (Promega), and assayed for luciferase activity using the Promega dual luciferase reporter system according to the manufacturer's instructions. Jurkat cells (1×10^6 cells) were transfected using FuGENE 6 (Roche) according to the manufacturer's instructions and assayed in a similar fashion after pelleting.
293T cells (10^5 cells/well of 12-well microplates) were seeded and transfected 20 hr later with a firefly luciferase (Luc)-expressing reporter plasmid and corresponding Renilla luciferase (Ren)-expressing reference plasmid using TransFectin™ (Bio-Rad, Hercules, Calif.). The bioavailable intracellular iron concentration was monitored using plasmids obtained from B. Galy and M. W. Hentze (EMBL, Heidelberg). Plasmid pcFIF-Luc contains the mouse ferritin H 5′-UTR with an iron response element (IRE) controlling Luc; pcFIRo-Ren is a similar construct expressing a mutated non-functional IRE fused to Ren. The activity of the HIV-1 promoter was monitored using the pNL4-3-Luc E molecular clone (Chen et al. (1994) J Virol 68: 654-660.), based on the recombinant infectious proviral clone that contains DNA from HIV isolates NY5 (5′ half) and IIIB (3′ half). This plasmid, obtained from D. Baltimore (Caltech, Pasadena), contains the Luc gene in place of 102 nucleotides from nef and 6 nucleotides from env. pCMV-Ren (Promega, Madison, Wis.) was used as reference for pNL4-3-Luc E. Compounds were added at the time of transfection. Cells were harvested 12 hr later, washed with phosphate-buffered saline, and lysed for the dual luciferase assay (Dual Luciferase™ Reporter Assay System; Promega, Madison, Wis.). Luc data were normalized to the Ren internal controls (Hogue et al. (2009) Retrovirology 6: 90.).
293T cells were selected as a model system to explore the relationship between the drugs, eIF5A and HIV gene expression. These cells efficiently transcribe HIV-1 genes from molecular clones as well as subviral constructs, allowing for early detection of changes in HIV gene expression. To establish the system, assays were carried out to examine the effect of CPX and DEF on the expression of firefly luciferase (FF) from the HIV-1 molecular clone, pNL4-3-LucE-, engineered to carry the FF gene in place of the viral nef gene. The molecular clone was transfected into 293T cells together with the pCMV-Ren vector that expresses Renilla luciferase (Ren) from the cytomegalovirus (CMV) immediate early promoter as a control for transfection efficiency and non-specific effects of the compounds. Dual luciferase assays were conducted at 12 hr post-transfection and results are expressed as relative luciferase activity (FF:Ren). […] Assays therefore were carried out to characterize the action of CPX and DEF on eIF5A and HIV gene expression in 293T cells during the first 12 to 24 hr of drug treatment.

In the next assay the test system is eIF5A. The assay is described as follows: eIF5A maturation in 293T cells, immunoblot with NIH-353 antibody. Format: cell-based, human. The note with it: for concentration range reducing appearance of mature eIF5A: 293T transfected with FLAG-eIF5A, 24 hr. The protocol: Rabbit NIH-353 antibody was raised against mature human eIF5A (Cracchiolo et al. Gynecol Oncol 2004, 94:217-222). Antibody against DOHH was generated by M. H. Park. Anti-eIF5A-1 monoclonal antibody (BD) was purchased from BD Biosciences. The anti-FLAG monoclonal antibody M2 and anti-actin antibody were purchased from Sigma.
as §1
To examine the effect of the drugs on the synthesis of modified eIF5A, 293T cells transfected with a FLAG-tagged eIF5A expression vector were simultaneously treated with CPX or DEF. FLAG-eIF5A was monitored using NIH-353 and anti-FLAG antibodies (FIG. 2A,B). The NIH-353 antibody reacts preferentially with post-translationally modified eIF5A. CPX reduced the appearance of mature eIF5A over the 3-30 μM concentration range, while DEF was effective at 200-400 μM. […] In addition to the CPX homolog Agent P2, deferoxamine (DFOX; Desferal™) was used as a control compound.

On to `Cc1cc(C2CCCCC2)n(O)c(=O)c1` [CPX, 6-cyclohexyl-1-hydroxy-4-methylpyridin-2[1H]-one], for which, at eIF5A:DOHH complex, the “interaction between endogenous eIF5A and tagged DOHH” value is “inhibited”; the “association of endogenous DOHH with FLAG-eIF5A” value (“association of endogenous DOHH” below) is “largely prevented”. For the same molecule, in the assay with HIV-1 promoter, the “inhibition of expression from construct VI” value is around 50%; the “dose dependence of repression of expression from pNL4-3-LucE-” value was “repressed expression from the HIV-1 molecular clone in a dose dependent fashion”; the “inhibition of FF expression from construct V” value is recorded as around 50%; the “inhibition of FF expression from constructs III and IV” value is around 50%. Further, the “repression of luciferase expression (FF:Ren) from pNL4-3-LucE-” value (from here on “repression of luciferase expression”) in the assay with HIV-1 promoter (DFOX 15 μM) is given as around 50%. Also, the “concentration range reducing appearance of mature eIF5A” value in the assay with eIF5A is 3 to 30 µM.

As for `Cc1ccn(O)c(=O)c1` [Agent P2, 1-hydroxy-4-methylpyridin-2[1H]-one], on eIF5A:DOHH complex, the “association of endogenous DOHH” value is “neither P2 or DFOX prevented the formation of the eIF5A:DOHH complex”. Besides, the “repression of luciferase expression” value in the assay on HIV-1 promoter (DFOX 15 μM) was “ineffective”. In addition, in the assay on HIV-1 promoter (run parallel to IRE reporter (FIG. 11B), DFOX 15 μM), the “decrease of HIV-encoded luciferase expression” value was “no effect on either IRE-dependent or HIV-encoded luciferase expression”. The “effect on appearance of mature FLAG-eIF5A” value in the assay with eIF5A (293T, control compounds) is listed as “little or no effect”.

On to `Cc1c(O)c(=O)ccn1C` [DEF, 3-hydroxy-1,2-dimethylpyridin-4(1H)-one], for which, at eIF5A:DOHH complex, the “interaction between endogenous eIF5A and tagged DOHH” value is recorded as “inhibited”; the “association of endogenous DOHH” value is “largely prevented”. Moreover, in the assay on HIV-1 promoter, the “inhibition of expression from construct VI” value is given as around 50%; the “dose dependence of repression of expression from pNL4-3-LucE-” value is “repressed expression from the HIV-1 molecular clone in a dose dependent fashion”; the “inhibition of FF expression from construct V” value is reported as around 50%; the “inhibition of FF expression from constructs III and IV” value is listed as around 50%. For the same molecule, the “repression of luciferase expression” value in the assay with HIV-1 promoter (DFOX 15 μM) is listed as around 50%. The “concentration range reducing appearance of mature eIF5A” value in the assay with eIF5A was 200 to 400 µM.

The values are drawn from US20120225093A1, “Abrogating HIV-1 Infection via Drug-Induced Reactivation of Apoptosis” (UNIVERSITY OF MEDICINE AND DENTISTRY OF NEW JERSEY, priority 2010, published 2012).
